Where two headings read alike, the source gives them in different places.
Columns and labels:
[1] = Single-dose pharmacokinetics of Compound B, fasted and fed cohorts; assay type: in vivo, human; conditions: for Cmax / AUC(0-inf) / half-life / Tmax: human, plasma, oral; for Cmax: read-out: Cmax Mean (% CV); for AUC(0-inf): read-out: AUCinf Mean (% CV); for Tmax: read-out: Tmax Median (Q1, Q3)
Method: Table 1 and Table 2 present the PK parameters of Compound B following the administration of a single dose of Compound B in the fasted cohorts and fed cohorts, respectively. Mean maximal plasma concentration values (Cmax) were higher with increasing dose in the fasted treatment groups. Mean maximal plasma concentration values were lower when Compound B (8 mg) was administered with moderate- or high-fat meal or following a high fat-meal than when Compound B was administered under fasting conditions.

[2] = Phase IIa studies in chronic HCV subjects: safety, neutrophil and lymphocyte counts, liver enzymes; assay type: in vivo, human; conditions: for proportion of subjects with AST elevations / proportion of subjects with ALT elevations: French study, 0.02 mg/kg group
Method: Single center study (France): 6 subjects received 0.01 mg/kg, 11 received 0.02 mg/kg and 6 received placebo.
Exclusion criteria included clinically meaningful cirrhosis on prior liver biopsy (U.S. study), positive serology for possible autoimmune hepatitis (ANA˜1:640, ASMA>1:320, ALKM antibody>1:320), hepatocellular neoplasia, anemia (<12 g/dL for men, <11 for women), thrombocytopenia (<90,000/μL), leukopenia (<2500 cells/μL), neutropenia (<1500 cells/μL, U.S. study), ALT>1000 U/L (French study) or aspartate aminotransferase (AST) or ALT>500 U/L (U.S. study), bilirubin>1 mg/dL, decompensated liver disease, other liver diseases, positive serology for HIV, positive HBsAg, prior organ transplantation, significant psychiatric disease, alcohol or drug abuse within 12 months, systemic immunomodulatory or investigational therapy within 3 months, and significant cardiac, pulmonary, systemic inflammatory or thyroid disease.
In the U.S. study, subjects were assigned centrally across centers. Active to placebo assignment was 3:1 for each cohort. Sample sizes were not prospectively powered.
All subjects were to receive study drug two times per week for 4 weeks. Subjects self-administered study drug at home except on study visits with pharmacokinetic and pharmacodynamic sampling where it was administered in the clinic. […] In the U.S. study, subjects received 0.01 mg/kg of resiquimod.
(§1) Serum IL-6, IL-1RA, TNF-α and IFN-γ were measured by enzyme-linked immunosorbent assay (Immunotech, Cedex, France) and neopterin by immunoenzymatic assay (Immunotech, Cedex, France). Serum type I IFN levels were determined by bioassay. Serum 2′,5′ oligoadenylate synthetase (2′5′ AS) was measured by radioimmunoassay (Eiken Chemical Co. Ltd., Tokyo, Japan). Serum IL-12 p40 was measured by enzyme-linked immunosorbent assay (R&D Systems, Minneapolis, Minn.) Immunophenotyping of T lymphocytes in the U.S. study was performed at NGI.

serum HCV RNA = test: Phase IIa studies: serum HCV RNA by quantitative polymerase chain reaction; assay type: in vivo, hepatitis C virus
Method: Two randomized, double-blind phase IIa studies of Compound B administered two times per week for 4 weeks. Multicenter study (U.S.): 12 subjects received Compound B 0.01 mg/kg and 4 received placebo. Single center study (France): 6 subjects received 0.01 mg/kg, 11 received 0.02 mg/kg and 6 received placebo.
Serum HCV RNA was measured by quantitative polymerase chain reaction (NGI). Subjects were categorized as responders (reduction from baseline of ˜2 logs) or non-responders at the end-of-treatment visit (day 29), and at the last follow-up visit (day 113 U.S. study, and day 57 French study).

IFN-α = test: Phase IIa studies: serum type I IFN levels by bioassay; assay type: in vivo, human
Method: as §1, with “Samples for cytokines were obtained at 0, 2, 4, 6, 8, 12 and 24 h after the first dose, prior to dosing at days 8, 15, 22 or 25 (see above regarding pharmacokinetics) and day 29. Serum IL-6,” for “Serum IL-6,”

[3] = Placebo-controlled single and multiple administration tolerability studies in healthy adults; assay type: in vivo; conditions: single administration study in 48 healthy adults, up to 0.05 mg/kg
[4] = 0.3 mg, single dose 0.3 mg, Cohort 1, fasted
[5] = 1 mg, single dose 1 mg, Cohort 2, fasted
[6] = 2 mg, single dose 2 mg, Cohort 3, fasted
[7] = 4 mg, single dose 4 mg, Cohort 4, fasted
[8] = 6 mg, single dose 6 mg, Cohort 5, fasted
[9] = 8 mg, single dose 8 mg post high-fat meal (4 hours), Cohort 9
[10] = 8 mg, single dose 8 mg with a high-fat meal, IFE Cohort
[11] = 8 mg, single dose 8 mg with a moderate-fat meal, Cohort 8
[12] = 8 mg, single dose 8 mg, Cohort 6, fasted
[13] = 12 mg, single dose 12 mg, Cohort 7, fasted
[14] = of the 11 subjects with at least a 1-log reduction at any time

CCCCOc1nc(N)c2c(n1)N(Cc1cccc(CN3CCCC3)c1)CC(=O)N2 [Compound B, 4-amino-2-butoxy-8-(3-(pyrrolidin-1-ylmethyl)benzyl)-7,8-dihydropteridin-6(5H)-one]
Mean maximal plasma concentration fed vs fasting ([1]; 8 mg with moderate- or high-fat meal or following a high-fat meal, vs fasting conditions): lower
Cmax [1, 4]: 0.184 ng/mL
AUC(0-inf) ([1]; 0.3 mg, single dose 0.3 mg, Cohort 1, fasted, limited terminal phase data, interpret with caution): 2.97 ng·h/mL
half-life ([1]; 0.3 mg, single dose 0.3 mg, Cohort 1, fasted, plasma measured only to 24 hours, interpret with caution, read-out: T½ Median (Q1, Q3) (converted)): 10.4 h
Tmax [1, 4]: 3 h
Cmax [1, 5]: 0.44 ng/mL
AUC(0-inf) [1, 5]: 9.23 ng·h/mL
Tmax [1, 5]: 3 h
half-life ([1]; 1 mg, single dose 1 mg, Cohort 2, fasted, read-out: T½ Median (Q1, Q3) (converted)): 26.9 h
Cmax [1, 6]: 0.633 ng/mL
AUC(0-inf) [1, 6]: 11.3 ng·h/mL
Tmax [1, 6]: 6 h
half-life ([1]; 2 mg, single dose 2 mg, Cohort 3, fasted, read-out: T½ Median (Q1, Q3) (converted)): 24.3 h
Cmax [1, 7]: 2.93 ng/mL
AUC(0-inf) [1, 7]: 57.2 ng·h/mL
Tmax [1, 7]: 4 h
half-life ([1]; 4 mg, single dose 4 mg, Cohort 4, fasted, read-out: T½ Median (Q1, Q3) (converted)): 17.2 h
Cmax [1, 8]: 7.26 ng/mL
AUC(0-inf) [1, 8]: 76.9 ng·h/mL
Tmax [1, 8]: 2.5 h
half-life ([1]; 6 mg, single dose 6 mg, Cohort 5, fasted, read-out: T½ Median (Q1, Q3) (converted)): 14.7 h
AUC(0-inf) [1, 9]: 79.5 ng·h/mL
Cmax [1, 9]: 4.53 ng/mL
Tmax [1, 9]: 5 h
half-life ([1]; 8 mg, single dose 8 mg post high-fat meal (4 hours), Cohort 9, read-out: T½ Median (Q1, Q3) (converted)): 20.5 h
AUC(0-inf) [1, 10]: 71.4 ng·h/mL
Cmax [1, 10]: 5.24 ng/mL
Tmax [1, 10]: 3 h
half-life ([1]; 8 mg, single dose 8 mg with a high-fat meal, IFE Cohort, read-out: T½ Median (Q1, Q3) (converted)): 23.6 h
AUC(0-inf) [1, 11]: 51.1 ng·h/mL
Cmax [1, 11]: 2.04 ng/mL
Tmax [1, 11]: 2 h
half-life ([1]; 8 mg, single dose 8 mg with a moderate-fat meal, Cohort 8, read-out: T½ Median (Q1, Q3) (converted)): 21.6 h
Cmax [1, 12]: 8.34 ng/mL
AUC(0-inf) [1, 12]: 109 ng·h/mL
Tmax [1, 12]: 2.51 h
half-life ([1]; 8 mg, single dose 8 mg, Cohort 6, fasted, read-out: T½ Median (Q1, Q3) (converted)): 19.5 h
Cmax [1, 13]: 12 ng/mL
AUC(0-inf) [1, 13]: 140 ng·h/mL
Tmax [1, 13]: 1.51 h
half-life ([1]; 12 mg, single dose 12 mg, Cohort 7, fasted, read-out: T½ Median (Q1, Q3) (converted)): 16.3 h
half-life ([1]; all groups except the 0.3-mg group, read-out: Median terminal half-life values across groups): 14.7 to 26.9 h
proportion of subjects with AST elevations ([2]; day 1 (6/11)): 55%
proportion of subjects with ALT elevations ([2]; day 1 (9/11)): 82%
proportion of subjects with AST elevations ([2]; day 29 (1/9)): 11%
proportion of subjects with ALT elevations ([2]; day 29 (5/9)): 56%
ALT and AST levels ([2]; U.S. study, 0.01 mg/kg): Neither ALT nor AST levels appeared to be affected
changes in physical examinations ([2]; both studies): no clinically meaningful changes
Clinically relevant changes in CD4+ lymphocyte counts or CD4+/CD8+ lymphocyte ratios ([2]; human, in vivo): not observed
adverse effects ([2]; oral 0.02 mg/kg): adverse effects similar to interferon-alpha
subjects with at least a 1-log reduction in HCV levels at any time during the study (serum HCV RNA; 0.01 mg/kg group): five
subjects with at least a 1-log reduction in HCV levels at any time during the study (serum HCV RNA; 0.02 mg/kg group): six
subjects with maximal reduction in viral levels of at least 1-log (serum HCV RNA; 0.02 mg/kg group): Two
subjects with maximal reduction in viral levels of at least 2-logs (serum HCV RNA; 0.02 mg/kg group): three
subjects with maximal reduction in viral levels of at least 3-logs (serum HCV RNA; 0.02 mg/kg group): one
responders per protocol (2 log reduction) at end-of-treatment visit (serum HCV RNA; 0.02 mg/kg, day 29, not sustained on follow-up): one
subjects whose HCV Rmax occurred at day 29 or after (serum HCV RNA; [14]): 5 subjects
subjects whose HCV Rmax occurred within 48 h after dose 1 (serum HCV RNA; [14]): 6 subjects
effect on viral levels (serum HCV RNA; oral 0.02 mg/kg): transiently reduced viral levels
serum HCV RNA levels after the first dose (serum HCV RNA; peaking at about 24 h, trending toward baseline by 48 h): dose-dependent decrease
IFN-α Rmax post-dose 1 of individual subject (IFN-α; 0.02 mg/kg subject who discontinued treatment for severe grade flu-like symptoms): 3946 IU/mL
IFN-α Rmax post-dose 1 of individual subject (IFN-α; 0.02 mg/kg subject who discontinued treatment for severe grade lymphopenia): 15,557 IU/mL
maximum tolerated oral dose [3]: 0.03 mg/kg

Reference: patent publication US20130157973A1, “PHARMACEUTICAL COMPOSITIONS AND METHODS FOR TREATING GASTROINTESTINAL INFECTIONS AND DISORDERS” (priority 2011, published 2013)
